Experimental findings from PubChem BioAssay (NCI) are described below.

Test in all cases: NCI tumour cell line growth inhibition, 48 h
Experiment [1] deals with OVCAR-4 ovarian.
Experiment [2] relates to CCRF-CEM leukemia.
Experiment [3] relates to MOLT-4 leukemia.
Experiment [4] has as its system MDA-MB-435.
Experiment [5] has as its system UACC-62 melanoma.
Experiment [6] has as its system SN12C renal.
The subject of experiment [7] is RPMI-8226 leukemia.
Experiment [8] concerns M14 melanoma.
In experiment [9] the test system is SF-268 CNS.
Experiment [10] relates to HL-60(TB) leukemia.

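A five-concentration, 48-hour dose response in 96-well plates underlies each endpoint, interpolated linearly between surrounding concentrations. The concentration for 50% growth inhibition is given as GI50. TGI: total growth inhibition.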

In the case of `Cc1ccc(CN2CCC(C(=O)Nc3ccc(-c4cc5ccccc5[nH]4)cc3)CC2)o1`, the GI50 was 70100 nM in [1]; above 100000 nM in experiment [2]; above 100000 nM in experiment [3]; above 100000 nM in experiment [4]; 45500 nM in [5]; above 100000 nM in [6]. Besides, the GI50 in [7] is above 100000 nM; in experiment [8], 66100 nM; in experiment [9], above 100000 nM; in experiment [10], above 100000 nM. For the same molecule, the TGI in experiment [1], in [2], in [3], in [4], in [5] and in experiment [6] was above 100 µM throughout. The TGI in experiment [7], in [8], in experiment [9] and in experiment [10] was above 100 µM each time.

Turning to `CN1CCN(C2=NCCO2)CC1`, the TGI in [1], in experiment [2], in [3], in experiment [4], in [5] and in experiment [6] was above 100 µM in each case. In addition, the TGI in experiment [7], in experiment [8], in experiment [9] and in [10] was above 100 µM throughout.

On to `CC1CCc2nc[nH]c(=O)c21` (centres undefined), for which the GI50 in experiment [1], in experiment [2], in experiment [3], in [4], in experiment [5] and in experiment [6] was above 100000 nM throughout. In addition, the GI50 in [7], in experiment [8], in [9] and in [10] was above 100000 nM throughout. The TGI in experiment [1], in [2], in [3], in experiment [4], in experiment [5] and in experiment [6] was above 100 µM throughout. Besides, the TGI in experiment [7], in experiment [8], in [9] and in [10] was above 100 µM in each case.

For the molecule `O=C(Nc1ccc(-n2ccc3c(NC(=O)c4ccccc4)nccc32)cc1)c1ccc(Cl)c(C(F)(F)F)c1`, the GI50 is 1610 nM in [1]; 128 nM in experiment [2]; 351 nM in experiment [3]; 674 nM in experiment [4]; 576 nM in experiment [5]; 2250 nM in [6]. The GI50 in experiment [7] is 231 nM; in [8], 1920 nM; in experiment [9] it was 1080 nM; in [10], 687 nM. Besides, the TGI in [1] was 8.55 µM; in experiment [2], 2.17 µM; in experiment [3] it was above 20.7 µM; in experiment [4], 6.52 µM; in [5] it was 9.79 µM; in experiment [6] it was 18.3 µM. The TGI in experiment [7] was 5.54 µM; in experiment [8] it was 10.7 µM; in [9] it was 11.9 µM; in experiment [10], 9.78 µM.

Regarding `COc1cccc(-c2cc(-c3cccc(NS(C)(=O)=O)c3)nc(N)c2C#N)c1O`, the GI50 in [1] is 610 nM; in experiment [2] it was 153 nM; in [3], 349 nM; in experiment [4], 27.5 nM; in [5] it was 64 nM; in [6] it was 505 nM. Moreover, the GI50 is 268 nM in experiment [7], 83.7 nM in [8], 587 nM in experiment [9] and 86.1 nM in [10]. In addition, the TGI in [1] is above 100 µM; in experiment [2], above 100 µM; in experiment [3], above 100 µM; in experiment [4], 0.151 µM; in experiment [5], above 100 µM; in experiment [6] it was above 100 µM. The TGI in experiment [7] was 11.8 µM; in experiment [8], above 100 µM; in experiment [9], above 100 µM; in experiment [10], 2.77 µM.

For the molecule `COc1ccc(CC2c3cc4c(cc3CCN2C)OCO4)c(C=O)c1OC` (centres undefined), the TGI in [1], in experiment [2], in experiment [3], in [4], in [5] and in experiment [6] was above 100 µM each time. The TGI in experiment [7], in experiment [8], in experiment [9] and in [10] was above 100 µM in each case.

For `CN(C)c1ccc(/C=C\C2=[N+](C)c3ccccc3C2(C)C)cc1`, the GI50 in experiment [1] was 981 nM; in [2], 453 nM; in [4] it was 422 nM; in experiment [5], 1490 nM; in experiment [6], 351 nM; in experiment [7], 176 nM. The GI50 in experiment [8] was 1910 nM; in [9] it was 654 nM; in experiment [10] it was 295 nM. The TGI in [1] is above 59.4 µM; in experiment [2] it was above 100 µM; in [3], above 100 µM; in experiment [4], 9.35 µM; in experiment [5] it was 19.9 µM; in experiment [6], 14.6 µM. The TGI in experiment [7] was above 53.5 µM; in experiment [8], above 38.2 µM; in experiment [9], 34 µM; in experiment [10], above 100 µM.
